Results: patent publication US10351561B2, “Pyrazolo[3,4-b]pyridines and imidazo[1,5-b]pyridazines as PDE1 inhibitors” (H. Lundbeck A/S, priority 2016, dated 2019)

Assays:
Assay type in all cases: biochemical
PDE1A = PDE1A (Homo sapiens, UniProt P54750); test: PDE1 inhibition assay (PDE1A), SPA with tritium labelled cAMP; conditions: 15 nM tritium labelled cAMP, 1 hr at room temperature, SPA beads
PDE1B = PDE1B (Homo sapiens, UniProt Q01064); test: PDE1 inhibition assay (PDE1B), SPA with tritium labelled cAMP; conditions: 15 nM tritium labelled cAMP, 1 hr at room temperature, SPA beads; read-out: PDE1B, IC50
Experimental: Reactions were initiated by addition of the cyclic nucleotide substrate, and reactions were allowed to proceed for 1 hr at room temperature before being terminated through mixing with 20 μL (0.2 mg) yttrium silicate SPA beads (PerkinElmer).

PDE1C = PDE1C (Homo sapiens, UniProt Q14123); test: PDE1 inhibition assay (PDE1C), SPA with tritium labelled cAMP; conditions: 15 nM tritium labelled cAMP, 1 hr at room temperature, SPA beads
Sequence of PDE1C (Q14123 whole entry): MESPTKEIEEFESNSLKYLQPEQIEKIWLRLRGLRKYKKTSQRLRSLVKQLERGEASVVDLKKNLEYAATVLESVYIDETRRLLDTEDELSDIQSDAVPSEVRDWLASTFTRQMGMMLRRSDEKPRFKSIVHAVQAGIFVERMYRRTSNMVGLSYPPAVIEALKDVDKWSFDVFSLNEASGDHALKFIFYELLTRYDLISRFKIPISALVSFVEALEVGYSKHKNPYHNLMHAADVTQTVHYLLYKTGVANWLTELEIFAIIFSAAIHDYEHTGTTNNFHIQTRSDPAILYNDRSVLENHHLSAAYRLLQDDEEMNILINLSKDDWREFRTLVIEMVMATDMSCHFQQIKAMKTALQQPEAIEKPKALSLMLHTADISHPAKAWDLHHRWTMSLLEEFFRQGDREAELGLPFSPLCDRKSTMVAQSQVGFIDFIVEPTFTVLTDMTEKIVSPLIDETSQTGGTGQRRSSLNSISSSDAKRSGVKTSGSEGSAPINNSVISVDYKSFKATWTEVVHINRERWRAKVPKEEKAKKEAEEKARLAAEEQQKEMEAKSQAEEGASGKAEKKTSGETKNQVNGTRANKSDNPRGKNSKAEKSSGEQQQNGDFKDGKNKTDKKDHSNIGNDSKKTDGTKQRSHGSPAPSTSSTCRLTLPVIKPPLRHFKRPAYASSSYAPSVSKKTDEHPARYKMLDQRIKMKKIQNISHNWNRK

Sequence of PDE1B (Q01064 whole entry): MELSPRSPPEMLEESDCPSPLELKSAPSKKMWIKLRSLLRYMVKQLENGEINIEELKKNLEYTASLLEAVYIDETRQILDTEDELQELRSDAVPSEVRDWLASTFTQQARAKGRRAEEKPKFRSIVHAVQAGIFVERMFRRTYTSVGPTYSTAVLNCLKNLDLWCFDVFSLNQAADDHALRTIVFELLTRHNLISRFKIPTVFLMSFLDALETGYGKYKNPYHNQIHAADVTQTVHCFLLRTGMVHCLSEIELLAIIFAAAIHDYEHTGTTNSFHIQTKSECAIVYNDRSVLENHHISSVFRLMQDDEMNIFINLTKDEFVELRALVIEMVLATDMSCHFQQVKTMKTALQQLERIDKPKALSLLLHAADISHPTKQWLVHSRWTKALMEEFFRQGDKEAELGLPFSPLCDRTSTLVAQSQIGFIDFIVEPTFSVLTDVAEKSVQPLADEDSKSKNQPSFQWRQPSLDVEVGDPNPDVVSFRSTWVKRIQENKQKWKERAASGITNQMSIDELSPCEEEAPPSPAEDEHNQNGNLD
Sequence of PDE1A (P54750 whole entry): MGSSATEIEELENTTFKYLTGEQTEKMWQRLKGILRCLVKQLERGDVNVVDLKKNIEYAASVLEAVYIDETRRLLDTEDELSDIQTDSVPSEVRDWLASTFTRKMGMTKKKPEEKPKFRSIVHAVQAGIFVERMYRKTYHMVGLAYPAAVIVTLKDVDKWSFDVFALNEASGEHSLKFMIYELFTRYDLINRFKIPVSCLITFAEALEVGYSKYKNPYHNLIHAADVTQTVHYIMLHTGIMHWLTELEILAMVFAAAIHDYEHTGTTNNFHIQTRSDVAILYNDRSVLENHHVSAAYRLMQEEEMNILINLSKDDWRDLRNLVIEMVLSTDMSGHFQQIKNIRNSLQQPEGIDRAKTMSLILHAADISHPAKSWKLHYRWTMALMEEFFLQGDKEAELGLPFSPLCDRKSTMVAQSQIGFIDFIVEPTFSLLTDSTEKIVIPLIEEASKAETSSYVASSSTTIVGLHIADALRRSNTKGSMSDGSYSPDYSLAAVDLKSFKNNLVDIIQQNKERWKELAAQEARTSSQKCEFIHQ

An IC50 (PDE1A) of 3.8 nM, an IC50 (PDE1B) of 0.29 nM and an IC50 (PDE1C) of 2.5 nM were found for `Cc1nc(C(C)C)c2c(NCc3ncn(C)n3)cc(-c3cccc4ncoc34)nn12` [Example 81, 2-(1,3-benzoxazol-7-yl)-5-isopropyl-7-methyl-N-[(1-methyl-1,2,4-triazol-3-yl)methyl]imidazo[1,5-b]pyridazin-4-amine] in this work.
